Experimental data: patent US5266599A, “Use of (+)-1-[(3,4,5-trimethoxy)-benzyloxymethyl]-1-phenyl-N,N-dimethyl-n-propy lamine to increase gastric discharge in a subject” (priority 1989, dated 1993)
“Also recorded” adds a separate entry of the source. Where a name gives a salt, the structure may show the parent alone. Read-outs that look alike come from different tables or passages of the source.

How the values were obtained:
[1] = molecular target: T1, delta receptor (Cavia porcellus, UniProt A0A286XTF2); experiment: biochemical; conditions: CI50, inhibition of 50% of the binding of a specific radioactive ligand
T1 construct: from tissue

[2] = molecular target: mu receptor; experiment: Binding affinity to opiate receptor mu (inhibition of binding of a specific radioactive ligand); conditions: for IC50: read-out: CI50, inhibition of 50% of the binding of a specific radioactive ligand, mu receptor
[3] = molecular target: T2, kappa receptor (Cavia porcellus, UniProt P41144); experiment: biochemical; conditions: CI50, inhibition of 50% of the binding of a specific radioactive ligand
T2 construct: from tissue

[4] = system: abdominal cramps caused by acetic acid; experiment: Analgesic activity in vivo, abdominal cramps caused by intraperitoneal acetic acid (derived from Koster); parameters: species or system mice
[5] = system: opiate receptors of the gastric mucous membrane; experiment: Effect of the products on the gastric evacuation of solids in dogs; format: in vivo; conditions: for Variation in % of gastric evacuation of solids: oral capsule, one hour after meal; for effect on gastric discharge of solids (in words): one hour after administration
Description: The principle of the test consists in measuring the gastric content of the animals one hour after eating a meal comprising 400 g of solid matter with 21.7% dry matter composed of:
and 20 g of sheeps liver containing radiolabelled cyanocobalamine. The meal is consumed within about 5 minutes by the animals. After one hour, the gastric content is collected by means of a small tube placed approximately 10 cm into the pyloris before the experiment.
The collected sample is weighed and homogenized. Its radioactivity is measured and the amount of the gastric discharge expressed in percentage is calculated according to the formula: [formula] in which: […]
In practice, each test is carried out on three dogs and consists in administering to them, 20 minutes before eating the meal described above, a capsule containing the test product at a dose of […] per kg animal weight or a capsule placebo which serves to determine the control phenomenon of the discharge on the animal. The 3 dogs receive each treatment twice in random order. […] The meal is presented and ingested 20 minutes after the capsule containing the test product has been administered. The evacuation values of the solid phases are measured as described before and compared using the test of Mann and Whitney (U test). The difference in comparison with the control values is considered significant when p is<or =0.05.
The effect of the test products is objectivised by the percentage variation calculated according to the relation: [formula]

[6] = Solubility, hygroscopicity and stability of the addition salt; conditions: D-(-) tartaric acid salt
[7] = system: opiate receptors of the kappa type in the gastric mucous membrane; conditions: dog, in vivo, cited from earlier work
[8] = Acute toxicity, oral, in male mice; format: in vivo; conditions: mouse, in vivo, po, fourteen days
Description: (§1) This toxicity has been studied orally in male mice. The test products have been administered at the rate of 2 ml of their aqueous solution per 100 g of animal weight. The animals are then observed for 3 hours after administration, then daily for fourteen days, when they are sacrificed and then an autopsy is carried out.
(§2) The LD50 (lethal doses which cause the death of 50% of the animals) have been calculated according to the method of Reed J. L. and Muench H. (Am. J. Hyg. 1939, 27, p. 493).

[9] = system: mice; experiment: Acute toxicity, oral, in male mice; format: in vivo
Description: as §1, §2

[10] = system: opiate receptors mu, delta and kappa; format: binding
[11] = system: duodenum of the rat; experiment: tissue or blood; format: cell-based; conditions: for IC50: Rattus norvegicus
[12] = system: gastric discharge; conditions: in vivo; cited from earlier work
[13] = mu receptor, racemates uncorrected
[14] = in vitro, compared with the (+) enantiomer or other receptors

T1 sequence (A0A286XTF2 1-366): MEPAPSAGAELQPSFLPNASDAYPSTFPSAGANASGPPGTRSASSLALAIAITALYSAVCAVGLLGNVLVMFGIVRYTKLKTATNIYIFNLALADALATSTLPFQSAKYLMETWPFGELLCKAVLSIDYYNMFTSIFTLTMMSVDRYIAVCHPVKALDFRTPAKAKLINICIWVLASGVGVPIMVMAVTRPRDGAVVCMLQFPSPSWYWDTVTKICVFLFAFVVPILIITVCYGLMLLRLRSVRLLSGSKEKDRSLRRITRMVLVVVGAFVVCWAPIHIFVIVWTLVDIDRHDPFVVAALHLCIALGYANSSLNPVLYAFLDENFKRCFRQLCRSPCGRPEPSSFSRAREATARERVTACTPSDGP
T2 sequence (P41144 whole entry): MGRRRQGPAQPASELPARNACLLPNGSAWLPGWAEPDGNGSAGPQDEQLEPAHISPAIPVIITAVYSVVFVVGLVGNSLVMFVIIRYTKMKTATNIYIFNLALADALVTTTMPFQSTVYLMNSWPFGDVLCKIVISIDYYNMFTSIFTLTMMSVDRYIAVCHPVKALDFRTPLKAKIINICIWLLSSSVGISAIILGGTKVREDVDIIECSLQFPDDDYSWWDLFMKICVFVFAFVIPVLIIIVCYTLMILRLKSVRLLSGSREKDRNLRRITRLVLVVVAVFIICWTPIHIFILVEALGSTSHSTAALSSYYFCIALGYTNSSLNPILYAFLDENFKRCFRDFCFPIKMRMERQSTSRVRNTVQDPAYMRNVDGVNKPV

CCC(COCc1ccc(OC)c(OC)c1)(c1ccccc1)N(C)C (racemic) [Ex. 1 of U.S. Pat. No. 4,301,163, (+/-)1-[(3,4-dimethoxy)benzyloxymethyl]-1-phenyl-N,N-dimethyl-n-propylamine]
IC50 [1]: 7800 nM
IC50 [2, 13]: 1110 nM
IC50 [3]: 1110 nM

CCC(COCc1ccccc1)(c1ccccc1)N(C)C (racemic) [Ex. 3 of U.S. Pat. No. 4,301,163, (+/-)1-benzyloxymethyl-1-phenyl-N,N-dimethyl-n-propylamine]
% analgesia ([4]; 50 mg/kg, orally, mice): 27.6%
IC50 [1]: 14700 nM
mu receptor affinity (in words) [2, 14]: just as, if not more active
IC50 [2, 13]: 190 nM
IC50 [3]: 560 nM

CCC(COCc1cc(OC)c(OC)c(OC)c1)(NC)c1ccccc1 (racemic) [Ex. 12 of U.S. Pat. No. 4,301,163]
% analgesia ([4]; 50 mg/kg, orally, mice): 44.0%
% analgesia, corrected for racemic compound (multiplied by two) ([4]; 50 mg/kg, orally, mice, racemate correction): 88.0%
IC50 [1]: 2250 nM
mu receptor affinity (in words) [2, 14]: just as, if not more active
IC50 [2, 13]: 360 nM
IC50 [3]: 2280 nM

COc1ccc(C(C)(COCc2ccc(Cl)cc2)N(C)C)cc1 (racemic) [Ex. 13 of U.S. Pat. No. 4,301,163, (+/-) 1-(p-chlorobenzyloxymethyl)-1-(p-methoxyphenyl)N,N-dimethyl-n-ethylamine]
% analgesia ([4]; 50 mg/kg, orally, mice): 27.9%
IC50 [1]: 4390 nM
mu receptor affinity (in words) [2, 14]: just as, if not more active
IC50 [2, 13]: 250 nM
IC50 [3]: 900 nM

CCC(COC(=O)c1cc(OC)c(OC)c(OC)c1)(c1ccccc1)N(C)C (racemic) [Trimebutine, (+/-)-2-dimethylamino-2-phenyl-n-butyl 3,4,5-trimethoxybenzoate]
% analgesia ([4]; mouse, in vivo): 24.3%
% analgesia, corrected for racemic compound (multiplied by two) ([4]; mouse, in vivo): 48.6%
IC50 [1]: 1750 nM
Variation in % of gastric evacuation of solids ([5]; 5 mg/kg): -4%
mu receptor affinity (in words) [2]: just as, if not more active
IC50 [2]: 146 nM
IC50 [3]: 1460 nM

CCC(COCc1cc(OC)c(OC)c(OC)c1)(c1ccccc1)N(C)C (single isomer, unassigned) [D-(-) tartaric acid addition salt, (+) 1-[(3,4,5-trimethoxy)-benzyloxymethyl]-1-phenyl-N-N-dimethyl-n-propylamineD-(-)-tartrate]
hygroscopicity (in words) [6]: without being hygroscopic
physico-chemical stability (in words) [6]: physico-chemical stability necessary for its use
solubility in water (in words) [6]: soluble in water

CCC1C2Cc3ccc(O)cc3C1(CC)CCN2Cc1ccoc1 (single isomer, unassigned) [MR 2266]
inhibition of the gastric discharge effect of the product of the invention by the antagonist (in words) ([5]; intravenous antagonist): inhibited
inhibition of the gastric discharge effect of kappa agonists (in words) [7]: inhibited

CCC(COCc1cc(OC)c(OC)c(OC)c1)(c1ccccc1)N(C)C (single isomer, unassigned; (+)) [(+) Enantiomer, (+) 1-[(3,4,5-trimethoxy)benzyloxymethyl]-1-phenyl-N,N-dimethyl-n-propylamine]
% analgesia ([4]; mouse, in vivo): 17.6%
times less analgesic than the compound of Example 12 of the U.S. Patent ([4]; mouse, in vivo): ~5 times
times less analgesic than the trimebutine ([4]; mouse, in vivo): ~3 times
analgesic effect (in words) ([4]; mouse, in vivo, po): virtually without any analgesic effect; also recorded: does not have "in vivo", as one would expect it, a central analgesic activity; also recorded: very little analgesic effect
IC50 [1]: 540 nM
Variation in % of gastric evacuation of solids, with MR 2266 ([5]; 0.25 mg/kg oral + MR 2266 0.1 mg per kg intravenous): +14%
Variation in % of gastric evacuation of solids, with naloxone ([5]; 0.25 mg/kg oral + naloxone 0.1 mg per kg intravenous): +5%
Variation in % of gastric evacuation of solids ([5]; 0.25 mg/kg): +110%
effect on gastric discharge of solids (in words) ([5]; listed as compound of the invention): increased discharge of solids in dogs
effect on gastric discharge of solids (in words) ([5]; listed as product of the invention): doubles the gastric evacuation of the solids; also recorded: clearly shows an activity which encourages gastric discharge of solids in dogs
LD50 at 336 h [8]: 407 mg/kg
toxicity relative to the levorotatory antipode (in words) [9]: about half as toxic
receptor binding affinity to mu, delta and kappa (in words) [10]: shows a receptor binding affinity to the receptors mu, delta and kappa; also recorded: shows an "in vitro" affinity with the opiate receptors mu, delta and kappa; also recorded: showing an affinity to the three receptors studied, with a non-negligible intensity
IC50 [2, 13]: 196 nM
IC50 [3]: 232 nM
antispasmodic activity (in words) [11]: activity slightly above that of papaverine; also recorded: possesses an antispasmodic activity
IC50 ([11]; read-out: molar concentration inhibiting 50% of the amplitude of spasms caused by barium chloride): 17000 nM

CCC(COCc1cc(OC)c(OC)c(OC)c1)(c1ccccc1)N(C)C (single isomer, unassigned; (-)) [(-) Enantiomer, (-) 1-[(3,4,5-trimethoxy)benzyloxymethyl]-1-phenyl-N,N-dimethyl-n-propylamine]
IC50 [1]: 12300 nM
Variation in % of gastric evacuation of solids ([5]; 0.25 mg/kg): +26%
effect on gastric discharge of solids (in words) ([5]; listed as levorotatory enantiomer): four times less significant
LD50 ([9]; fourteen days, 20160 min): 255 mg/kg
IC50 [2, 13]: 580 nM
IC50 [3]: 2630 nM

CN1CC[C@]23c4c5ccc(O)c4O[C@H]2[C@@H](O)C=C[C@H]3[C@H]1C5 [Morphine]
antispasmodic activity (in words) ([11]; barium chloride, duodenum of the rat, in vitro): inactive; also recorded: inactive at a concentration of more than 5 times greater than that of the product of the invention

COc1ccc(Cc2nccc3cc(OC)c(OC)cc23)cc1OC [Papaverine]
IC50 ([11]; read-out: IC50, inhibition of 50% of the amplitude of contractions): 27400 nM

CN1c2ccccc2C(c2ccccc2F)=NCC1CNC(=O)c1ccsc1 (stereo not shown) [Tifluadom]
gastric discharge after oral administration (in words) ([7]; po): increased gastric discharge; also recorded: modify the gastric discharge by their local action

CCN(CC)CCNC(=O)c1cc(Cl)c(N)cc1OC [metoclopramide]
gastric discharge (in words) [12]: possesses this property
